Assay results taken from US20080262097A1, “Formulations” (priority 2005, published 2008).
≈ marks a conversion by molar mass, not a printed value. Where two headings read alike, the source gives them in different places.

What was measured:
E faecalis ATCC 29212 [1] = experiment: MIC assay; format: cell-based; conditions: Enterococcus faecalis, ATCC29212
Text: (§1) 3. Enterococcus faecalis ATCC 29212—this is a Gram-positive bacterium belonging to the genus Enterococcus. Enterococci have similar properties to streptococci, but differ in their ability to grow on bile-salt containing media such as MacConkey's Agar. Their principal habitat is the mammalian gastrointestinal tract. They cause a number of important infections including endocarditis, urinary tract infections and abscesses. In the context of skin, they are frequently isolated from wound infections. Unlike the streptococci, the enterococci have developed widespread resistance to penicillin. More recently, E. faecalis and E. faecium strains have also developed resistance to the glycopeptide antibiotics such as vancomycin. Vancomycin-Resistant Enterococci (VRE), principally vanA strains of E. faecium, now represent a serious healthcare-acquired infection hazard in the USA, Japan and Western Europe. […]
This is a standard international method for quantitatively assessing the antimicrobial activity of a compound in a liquid medium. […]
The wells were inoculated with a liquid suspension of freshly grown micro-organism and incubated under the conditions described above. […] The MIC value was recorded as the lowest concentration of test compound required to inhibit microbial growth, ie, the lowest concentration for which the liquid in the well remained clear. […]

E faecalis ATCC 29212 [2] = experiment: Disc diffusion assay (DDA); format: cell-based, Enterococcus faecalis; conditions: zone diameter, 200 μg per disc
Text: as §1
A sterile paper disc was impregnated with a sample of the test compound and a minimum of 30 minutes allowed for the solvents to evaporate as far as possible. […] The diameter of this zone of “inhibition” was measured using a ProtoCOL™ automated zone sizer (Synbiosis, Cambridge, UK). […]
The area of the zone of inhibition was calculated from the measured zone diameter (D) using the formula π(D/2)^2. […]

P. acnes PRP-004 [3] = experiment: MIC assay; format: cell-based, Propionibacterium acnes; conditions: Cutibacterium acnes, PRP004; P. acnes PRP-004 (resistance Tet)
Description: (§2) The Propionibacterium spp organisms were cultured and maintained on Wilkins-Chalgren Anaerobe Medium (agar and broth) at pH 6.0; cultures were incubated anaerobically at 37° C. for 72 hours.
(§3) This is a standard international method for quantitatively assessing the antimicrobial activity of a compound in a liquid medium. The method used a 96-well microtitre plate, capable of holding about 200 μl of liquid per well. […] The culture media were as described above for the relevant test organisms.
(§4) The wells were inoculated with a liquid suspension of freshly grown micro-organism and incubated under the conditions described above. After incubation, the microtitre plate was examined visually (with the aid of a light box) for cell pellets in and/or opaque wells, which would indicate microbial growth. The MIC value was recorded as the lowest concentration of test compound required to inhibit microbial growth, ie, the lowest concentration for which the liquid in the well remained clear.
(§5) The assays were conducted in duplicate and included both negative (culture medium only) and positive (culture medium, diluting solvent and inoculum) controls.

P. acnes PRP-046 [4] = experiment: MIC assay; format: cell-based, Propionibacterium acnes; conditions: Cutibacterium acnes, PRP046; P. acnes PRP-046 (resistance None)
Description: as §2, §3, §4, §5

P. acnes PRP-101 [5] = experiment: MIC assay; format: cell-based, Propionibacterium acnes; conditions: Cutibacterium acnes, PRP101; P. acnes PRP-101 (resistance Tet/MLS)
Description: as §2, §3, §4, §5

P. acnes PRP-004 [6] = experiment: MBC assay; format: cell-based, Propionibacterium acnes; conditions: Cutibacterium acnes, PRP004; P. acnes PRP-004 (resistance Tet)
Description: as §2
(§6) This assay, normally carried out after an MIC assay, determines the minimum concentration of a compound that is lethal to the micro-organism being tested.
(§7) These samples were then individually sub-cultured on non-selective agar medium, under the incubation conditions described above. Following incubation they were examined visually for bacterial growth.

P. acnes PRP-068 = experiment: MBC assay; format: cell-based, Propionibacterium acnes; conditions: Cutibacterium acnes, PRP068; P. acnes PRP-068 (resistance Ery)
Description: as §2, §6, §7

P. acnes PRP-046 [7] = experiment: MBC assay; format: cell-based, Propionibacterium acnes; conditions: Cutibacterium acnes, PRP046; P. acnes PRP-046 (resistance None)
Description: as §2, §6, §7

P. acnes PRP-026 = experiment: MBC assay; format: cell-based, Propionibacterium acnes; conditions: Cutibacterium acnes, PRP026; P. acnes PRP-026 (resistance MLS)
Description: as §2, §6, §7

P. acnes PRP-008 = experiment: MBC assay; format: cell-based, Propionibacterium acnes; conditions: Cutibacterium acnes, PRP008; P. acnes PRP-008 (resistance Clin)
Description: as §2, §6, §7

P. acnes PRP-007 = experiment: MBC assay; format: cell-based, Propionibacterium acnes; conditions: Cutibacterium acnes, PRP007; P. acnes PRP-007 (resistance Clin)
Description: as §2, §6, §7

P. acnes PRP-002 = experiment: MBC assay; format: cell-based, Propionibacterium acnes; conditions: Cutibacterium acnes, PRP002; P. acnes PRP-002 (resistance Tet/MLS)
Description: as §2, §6, §7

P. acnes PRP-059 = experiment: MBC assay; format: cell-based, Propionibacterium acnes; conditions: Cutibacterium acnes, PRP059; P. acnes PRP-059 (resistance MLS)
Description: as §2, §6, §7

P. acnes PRP-003 = experiment: MBC assay; format: cell-based, Propionibacterium acnes; conditions: Cutibacterium acnes, PRP003; P. acnes PRP-003 (resistance Tet)
Description: as §2, §6, §7

P. acnes PRP-101 [8] = experiment: MBC assay; format: cell-based, Propionibacterium acnes; conditions: Cutibacterium acnes, PRP101; P. acnes PRP-101 (resistance Tet/MLS)
Description: as §2, §6, §7

P. acnes PRP-023 = experiment: MBC assay; format: cell-based, Propionibacterium acnes; conditions: Cutibacterium acnes, PRP023; P. acnes PRP-023 (resistance MLSK)
Description: as §2, §6, §7

P. acnes PRP-017 = experiment: MBC assay; format: cell-based, Propionibacterium acnes; conditions: Cutibacterium acnes, PRP017; P. acnes PRP-017 (resistance MLS)
Description: as §2, §6, §7

P. acnes PRP-102 = experiment: MBC assay; format: cell-based, Propionibacterium acnes; conditions: Cutibacterium acnes, PRP102; P. acnes PRP-102 (resistance Tet/MLS)
Description: as §2, §6, §7

## O=C(OOC(=O)c1ccccc1)c1ccccc1 [benzoyl peroxide]
E faecalis ATCC 29212 [1]; E faecalis ATCC 29212, read-out: MIC
  MIC: > 250 µg/mL
E faecalis ATCC 29212 [2]
  DDA: 0.0 mm
P. acnes PRP-004 [3]
  MIC: 7.8 µg/mL (≈ 32.2 µM)
P. acnes PRP-046 [4]
  MIC: 31.2 µg/mL (≈ 129 µM)
P. acnes PRP-101 [5]
  MIC: 15.6 µg/mL (≈ 64.4 µM)
P. acnes PRP-004 [6]
  MBC: 15.6 µg/mL (≈ 64.4 µM)
P. acnes PRP-068
  MBC: 125 µg/mL (≈ 516 µM)
P. acnes PRP-046 [7]
  MBC: 62.5 µg/mL (≈ 258 µM)
P. acnes PRP-026
  MBC: 31.2 µg/mL (≈ 129 µM)
P. acnes PRP-008
  MBC: 31.2 µg/mL (≈ 129 µM)
P. acnes PRP-007
  MBC: 62.5 µg/mL (≈ 258 µM)
P. acnes PRP-002
  MBC: 31.2 µg/mL (≈ 129 µM)
P. acnes PRP-059
  MBC: 125 µg/mL (≈ 516 µM)
P. acnes PRP-003
  MBC: 31.2 µg/mL (≈ 129 µM)
P. acnes PRP-101 [8]
  MBC: 31.2 µg/mL (≈ 129 µM)
P. acnes PRP-023
  MBC: 62.5 µg/mL (≈ 258 µM)
P. acnes PRP-017
  MBC: 62.5 µg/mL (≈ 258 µM)
P. acnes PRP-102
  MBC: 62.5 µg/mL (≈ 258 µM)

## CC(C)(C)c1cc(O)ccc1O [TBHQ, t-butyl hydroquinone]
E faecalis ATCC 29212 [1]
  MIC: 15.6 µg/mL
E faecalis ATCC 29212 [2]
  DDA: 33.67 mm
P. acnes PRP-004 [3]
  MIC: 1.95 µg/mL (≈ 11.7 µM)
P. acnes PRP-046 [4]
  MIC: 1.95 µg/mL (≈ 11.7 µM)
P. acnes PRP-101 [5]
  MIC: 3.9 µg/mL (≈ 23.5 µM)
P. acnes PRP-004 [6]
  MBC: 7.8 µg/mL (≈ 46.9 µM)
P. acnes PRP-068
  MBC: 7.8 µg/mL (≈ 46.9 µM)
P. acnes PRP-046 [7]
  MBC: 7.8 µg/mL (≈ 46.9 µM)
P. acnes PRP-026
  MBC: 7.8 µg/mL (≈ 46.9 µM)
P. acnes PRP-008
  MBC: 7.8 µg/mL (≈ 46.9 µM)
P. acnes PRP-007
  MBC: 7.8 µg/mL (≈ 46.9 µM)
P. acnes PRP-002
  MBC: 7.8 µg/mL (≈ 46.9 µM)
P. acnes PRP-059
  MBC: 7.8 µg/mL (≈ 46.9 µM)
P. acnes PRP-003
  MBC: 7.8 µg/mL (≈ 46.9 µM)
P. acnes PRP-101 [8]
  MBC: 7.8 µg/mL (≈ 46.9 µM)
P. acnes PRP-023
  MBC: 7.8 µg/mL (≈ 46.9 µM)
P. acnes PRP-017
  MBC: 7.8 µg/mL (≈ 46.9 µM)
P. acnes PRP-102
  MBC: 15.6 µg/mL (≈ 93.9 µM)
